Values of other authors, collected in US20110053874A1, “USE OF FLAVONOIDE COMPOUNDS FOR THE PROPHYLAXIS AND THERAPY OF ISCHAEMIC OR INFLAMMATORY HEART AND CARDIOVASCULAR DISEASES” (BOEHRINGER INGELHEIM INTERNATIONAL GMBH, priority 2008, published 2011).

Legend:
[1] = in vivo
[2] = human, oral

absorption [1]	SMILES	form present in the plasma after being taken orally and absorbed through the intestine [2]
only absorbed to a small extent	O=c1c(O)c(-c2ccc(O)c(O)c2)oc2cc(O)cc(O)c12 [Quercetin]	–
–	O=c1c(O[C@@H]2O[C@H](CO)[C@@H](O)[C@H](O)[C@H]2O)c(-c2ccc(O)cc2)oc2cc(O)cc(O)c12 [kaempferol glucoside, kaempferol-3-O-β-D-glucoside]	almost completely in the form of their respective glucuronides
–	O=c1c(O[C@@H]2O[C@H](CO)[C@@H](O)[C@H](O)[C@H]2O)c(-c2ccc(O)c(O)c2)oc2cc(O)cc(O)c12 [quercetin glucoside, quercetin-3-O-β-D-glucoside]	almost completely in the form of their respective glucuronides
